In patent publication US12037344B2, “NLRP3 modulators” (INNATE TUMOR IMMUNITY, INC., priority 2018, dated 2024):
Read-outs that look alike come from different tables or passages of the source. Values belong to the molecule of their own block, whether it stands above or below them.

Legend:
THP-1 cells = experiment: Measurement of IL-1β production, hTRF protocol (second alternative procedure), THP-1 cells; type: cell-based, human; details: Homo sapiens, THP-1, IL-1β production, read-out: NLRP3 hILIB EC50
How it was run: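 THP-1 cells differentiated overnight with 50 ng/ml PMA, then plated at 50,000 cells/well in RPMI with 2% FBS onto serial compound dilutions (top final concentration 10 μM) for 2 hours at 37° C. Supernatant IL-1β measured by hTRF (antibodies at 1:40, overnight at 4° C), read at 665/615 nm against a standard curve.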

TLR8 = biological target: T1, TLR8 (Homo sapiens, UniProt Q9NR97); experiment: In vitro human TLR8 binding reporter assay (HEK-Blue, NF-kB/AP1-inducible SEAP); type: cell-based; details: read-out: TLR8 Agonist EC50
T1 construct: human HEK-Blue cells co-expressing a TLR7 or TLR8 gene
T1 sequence (Q9NR97 27-1041): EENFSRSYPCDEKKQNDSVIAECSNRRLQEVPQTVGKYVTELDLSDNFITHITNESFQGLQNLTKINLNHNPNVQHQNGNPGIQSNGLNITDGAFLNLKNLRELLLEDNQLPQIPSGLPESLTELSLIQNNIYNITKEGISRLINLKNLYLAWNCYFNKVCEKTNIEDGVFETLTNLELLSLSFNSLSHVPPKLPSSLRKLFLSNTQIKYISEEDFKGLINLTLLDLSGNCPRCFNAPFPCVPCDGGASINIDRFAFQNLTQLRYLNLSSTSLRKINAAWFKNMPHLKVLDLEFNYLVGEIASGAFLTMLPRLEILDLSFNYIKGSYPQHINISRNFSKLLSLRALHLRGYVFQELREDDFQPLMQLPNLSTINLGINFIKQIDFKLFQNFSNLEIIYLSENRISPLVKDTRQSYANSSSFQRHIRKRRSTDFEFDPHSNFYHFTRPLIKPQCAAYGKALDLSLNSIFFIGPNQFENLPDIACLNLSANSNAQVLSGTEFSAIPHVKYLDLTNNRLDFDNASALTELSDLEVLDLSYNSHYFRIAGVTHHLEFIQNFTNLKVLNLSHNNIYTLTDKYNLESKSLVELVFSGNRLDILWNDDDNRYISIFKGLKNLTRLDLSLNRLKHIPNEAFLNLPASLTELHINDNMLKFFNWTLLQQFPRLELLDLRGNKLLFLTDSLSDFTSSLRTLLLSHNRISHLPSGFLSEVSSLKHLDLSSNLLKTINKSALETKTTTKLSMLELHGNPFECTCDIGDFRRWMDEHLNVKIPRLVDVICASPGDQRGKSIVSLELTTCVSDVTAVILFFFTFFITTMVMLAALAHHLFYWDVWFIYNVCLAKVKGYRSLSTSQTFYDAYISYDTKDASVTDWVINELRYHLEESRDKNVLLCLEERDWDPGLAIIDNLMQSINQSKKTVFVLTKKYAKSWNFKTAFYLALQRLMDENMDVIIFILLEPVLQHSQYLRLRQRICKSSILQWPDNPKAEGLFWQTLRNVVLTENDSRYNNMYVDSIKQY
How it was run: (§1)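 HEK-Blue cells expressing human TLR7 or TLR8 with NF-kB/AP1-inducible SEAP reporter, plated 24 h, then compound-treated 18 h at 37° C, 5% CO2. EC50 normalized to 100% Ymax set by 50 μM reference standard.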

TLR7 = biological target: T2, TLR7 (Homo sapiens, UniProt Q9NYK1); experiment: In vitro human TLR7 binding reporter assay (HEK-Blue, NF-kB/AP1-inducible SEAP); type: cell-based; details: read-out: TLR7 Agonist EC50
T2 construct: human HEK-Blue cells co-expressing a TLR7 or TLR8 gene
T2 sequence (Q9NYK1 27-1049): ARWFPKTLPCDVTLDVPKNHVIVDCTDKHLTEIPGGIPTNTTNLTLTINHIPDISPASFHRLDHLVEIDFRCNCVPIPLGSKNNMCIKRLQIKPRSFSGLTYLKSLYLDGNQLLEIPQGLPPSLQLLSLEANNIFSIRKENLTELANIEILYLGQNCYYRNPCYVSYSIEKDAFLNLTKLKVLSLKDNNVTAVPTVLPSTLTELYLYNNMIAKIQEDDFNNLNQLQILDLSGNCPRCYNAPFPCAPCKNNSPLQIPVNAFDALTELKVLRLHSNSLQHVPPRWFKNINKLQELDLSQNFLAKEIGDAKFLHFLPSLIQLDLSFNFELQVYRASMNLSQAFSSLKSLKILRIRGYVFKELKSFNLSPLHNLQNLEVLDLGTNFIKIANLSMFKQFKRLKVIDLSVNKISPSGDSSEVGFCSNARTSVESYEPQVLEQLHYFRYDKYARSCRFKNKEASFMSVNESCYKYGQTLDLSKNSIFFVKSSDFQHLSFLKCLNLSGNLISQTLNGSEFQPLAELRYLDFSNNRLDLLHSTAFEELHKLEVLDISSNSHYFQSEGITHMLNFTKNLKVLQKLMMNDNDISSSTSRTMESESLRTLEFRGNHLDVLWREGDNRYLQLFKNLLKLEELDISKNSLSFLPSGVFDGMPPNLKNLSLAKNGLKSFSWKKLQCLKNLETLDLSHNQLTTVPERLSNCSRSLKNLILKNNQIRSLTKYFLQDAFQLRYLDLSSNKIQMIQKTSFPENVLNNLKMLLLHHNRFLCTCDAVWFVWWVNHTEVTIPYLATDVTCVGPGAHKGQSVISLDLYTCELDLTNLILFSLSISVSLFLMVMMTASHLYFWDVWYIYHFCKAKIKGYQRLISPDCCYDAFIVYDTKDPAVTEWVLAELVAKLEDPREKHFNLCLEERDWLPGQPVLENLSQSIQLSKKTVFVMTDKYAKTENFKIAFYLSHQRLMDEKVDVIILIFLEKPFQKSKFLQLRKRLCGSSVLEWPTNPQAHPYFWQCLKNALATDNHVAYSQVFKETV
How it was run: as §1

SMILES: Nc1nc2cc(-n3cccn3)ccc2c2cn(CCNC(=O)c3ccccn3)nc12 [Example 133, N-{2-[4-amino-7-(1H-pyrazol-1-yl)-2H-pyrazolo[3,4-c]quinolin-2-yl]ethyl}pyridine-2-carboxamide]
EC50 (THP-1 cells; human): 0.3 µM | EC50 (TLR8; activity range class): > 100 µM | EC50 (TLR7; activity range class): > 100 µM

SMILES: COCCS(=O)(=O)NCCCn1cc2c(N)nc3cc(-c4ccn[nH]4)ccc3c2n1 [Example 585]
EC50 (THP-1 cells; human cells): 3.88 µM | EC50 (TLR8; activity range): > 100 µM | EC50 (TLR7; activity range): > 100 µM

SMILES: CC(C)(O)Cn1cc2c(n1)c(N)nc1cc(-c3ccn[nH]3)ccc12 [Example 450]
EC50 (THP-1 cells; human cells): 0.53 µM | EC50 (TLR8; activity range): > 100 µM | EC50 (TLR7; activity range): > 100 µM

SMILES: Nc1nc2cc(-c3ccn[nH]3)ccc2c2nn(CCN3CCC3)cc12 [Example 271]
EC50 (THP-1 cells; human): 1.07 µM | EC50 (TLR8; activity range class): > 100 µM | EC50 (TLR7; activity range class): > 100 µM

SMILES: CC(C(=O)NC1CCC1)n1cc2c(N)nc3cc(-c4ccn[nH]4)ccc3c2n1 (stereo not drawn) [Example 562]
EC50 (THP-1 cells; human cells): 0.7 µM | EC50 (TLR8; activity range): > 100 µM | EC50 (TLR7; activity range): > 100 µM

SMILES: COc1ccc(C(=O)NCCn2cc3c(N)nc4cc(-c5cc[nH]n5)ccc4c3n2)nc1 [Example 202]
EC50 (THP-1 cells; human): 0.66 µM | EC50 (TLR8; activity range class): > 100 µM | EC50 (TLR7; activity range class): > 100 µM

SMILES: CC(Cn1cc2c(N)nc3cc(-n4cccn4)ccc3c2n1)NC(=O)C(C)(C)F (stereo not drawn) [Example 431]
EC50 (THP-1 cells; human cells): 1.23 µM | EC50 (TLR8; activity range): > 100 µM | EC50 (TLR7; activity range): > 100 µM

Second part, the molecule after the results:

EC50 (THP-1 cells; human): 3.49 µM | EC50 (TLR8; activity range class): > 100 µM | EC50 (TLR7; activity range class): > 100 µM
SMILES: CC(Cn1ncc2c(N)nc3cc(-c4cc[nH]n4)ccc3c21)NS(C)(=O)=O (stereo not drawn) [Example 302]

EC50 (THP-1 cells; human cells): 0.75 µM | EC50 (TLR8; activity range): > 100 µM | EC50 (TLR7; activity range): > 100 µM
SMILES: Nc1nc2cc(-c3cc[nH]n3)ccc2c2[nH]c(CN3C[C@@H]4C[C@H]3CO4)cc12 [Example 471]

EC50 (THP-1 cells; human): 4.5 µM | EC50 (TLR8; activity range class): > 100 µM | EC50 (TLR7; activity range class): > 100 µM
SMILES: COC1CN(CCn2cc3c(N)nc4cc(-c5ccn[nH]5)ccc4c3n2)C1 [Example 268]

EC50 (THP-1 cells; human cells): 0.62 µM | EC50 (TLR8; activity range): > 100 µM | EC50 (TLR7; activity range): > 100 µM
SMILES: Cc1[nH]c2c(c(N)nc3cc(-c4cc[nH]n4)ccc32)c1C [Example 423, 2,3-dimethyl-7-(1H-pyrazol-3-yl)-1H-pyrrolo[3,2-c]quinolin-4-amine]

EC50 (THP-1 cells; human): 1.68 µM | EC50 (TLR8; activity range class): > 100 µM | EC50 (TLR7; activity range class): > 100 µM
SMILES: Nc1nc2cc(-c3cc[nH]n3)ccc2c2cn(CCNC(=O)c3cccc(F)c3)nc12 [Example 77]

EC50 (THP-1 cells; human cells): 1.87 µM | EC50 (TLR8; activity range): > 100 µM | EC50 (TLR7; activity range): > 100 µM
SMILES: Nc1nc2cc(-c3cc[nH]n3)ccc2c2[nH]c(CNC(=O)C3CCCO3)cc12 (stereo not drawn) [Example 412]

EC50 (THP-1 cells; human cells): 0.07 µM | EC50 (TLR8; activity range): > 100 µM | EC50 (TLR7; activity range): > 100 µM
SMILES: N#CCCn1cc2c(N)nc3cc(-c4cc[nH]n4)ccc3c2n1 [Example 395]

EC50 (THP-1 cells; human): 0.31 µM | EC50 (TLR8; activity range class): 20 to 100 µM | EC50 (TLR7; activity range class): > 100 µM
SMILES: Cc1csc(C(=O)NCCn2cc3c(n2)c(N)nc2cc(-c4cc[nH]n4)ccc23)n1 [Example 96]

EC50 (THP-1 cells; human): 0.19 µM | EC50 (TLR8; activity range class): > 100 µM | EC50 (TLR7; activity range class): 20 to 100 µM
SMILES: Nc1nc2cc(-c3cc[nH]n3)ccc2c2cn(CCNC(=O)c3cc(F)ccn3)nc12 [Example 54]

EC50 (THP-1 cells; human): 0.31 µM | EC50 (TLR8; activity range class): > 100 µM | EC50 (TLR7; activity range class): > 100 µM
SMILES: Cc1cc(C)n(CCn2cc3c(n2)c(N)nc2cc(-c4cc[nH]n4)ccc23)n1 [Example 166]
